Laboratory results from the NIST ThermoML archive (doi:10.1021/je400238j).
± gives the expanded uncertainty stated by the source.

Details: Liquid, Ebulliometric method (Recirculating still)

Row | SMILES | vapor or sublimation pressure (323.46 K) [kPa] | vapor or sublimation pressure (338.72 K) [kPa] | vapor or sublimation pressure (348.56 K) [kPa] | vapor or sublimation pressure (351.51 K) [kPa] | vapor or sublimation pressure (359.76 K) [kPa] | vapor or sublimation pressure (360.06 K) [kPa] | vapor or sublimation pressure (380.43 K) [kPa] | vapor or sublimation pressure (380.94 K) [kPa] | vapor or sublimation pressure (394.09 K) [kPa] | vapor or sublimation pressure (394.6 K) [kPa] | vapor or sublimation pressure (398.49 K) [kPa] | vapor or sublimation pressure (398.74 K) [kPa]
1 | CCO [ethanol] | 30 ± 1.3 | 60 ± 1.5 | 90 ± 1.8 | 101.3 ± 2 |  |  |  |  |  |  |  | 
2 | CCCCCCCC [octane] |  |  |  |  | 30 ± 1.3 | 30 ± 2.5 | 60 ± 1.5 | 60 ± 4.7 | 90 ± 1.9 | 90 ± 7 | 101.3 ± 2 | 101.3 ± 7.9
